# In patent publication US20020013372A1, “Pharmacophore models for the identification of the CYP2D6 inhibitory potency of selective serotonin reuptake inhibitors” (priority 2000, published 2002):
# “And” between values parts separate entries of the source, which are not always exact repeats. Equal entries are not always repeated. Where two headings read alike, the source gives them in different places.
# What was measured:
# CYP2D6 [1] = molecular target: T1, CYP2D6 (Homo sapiens, UniProt P10635); conditions: cited from earlier work
# CYP2D6 [2] = molecular target: T1, CYP2D6; assay: In vitro inhibition of CYP2D6, observed Ki (apparent) values from the literature
# Text: Many SSRI's are known to be inhibitors of cytochrome P450 (CYP), including CYP2D6 mediated metabolic pathways in vivo and in vitro (Belpair et al., Eur. J Clin. Pharmacol., 54: 261-264, 1998; Crewe et al., Br. J. Clin. Pharmacol., 34: 262-265, 1992; Otton et al, Clin. Pharmacol. Ther., 53: 401-409, 1993; Skjelbo et al., Br. J. Clin. Pharmacol., 34: 256-261, 1992; Stevens et al., J. Pharmacol. Exp. Ther., 266: 964-971, 1993). […] As CYP2D6 is of major concern because of its polymorphic nature (Brosen, Ther. Drug Monitoring, 18: 393-396, 1996), the ability to predict whether a drug will interact with this CYP represents a serious advance in the pharmaceutical arts. The potential for CYP2D6 inhibition in vivo can be predicted reliably using systems such as human liver microsomes and recombinant enzymes, along with a know substrate probe for CYP2D6. By generating a K1 (apparent) value and knowledge of the plasma concentration of the drug, it is possible to reliably predict the likelihood of drug-drug interactions in vivo (Ring et al., J. Pharmacol. Exp. Ther., 275: 1131-1135, 1995).
# Present technologies have centered around the use of in vitro testing using human liver microsomes or recombinant CYPs and a known catalytic probe for CYP2D6 such as bufuralol. However, the possible volume of in vitro studies is often limited by equipment and materials cost, incubation volume and the rate of analytical determination. […] Generating this in vitro parameter appears to be dependent on the substrate probe used as well as other experimental variables.
# [3] = read-out: observed K1 (apparent), training set of 14 amphetamine compounds, Wu et al., Biochem. Pharmacol. 53: 1605-1612 (1997)
# [4] = read-out: Observed K1 (apparent), individual literature values, source per footnote b-l of Table I
# T1 sequence (P10635 whole entry): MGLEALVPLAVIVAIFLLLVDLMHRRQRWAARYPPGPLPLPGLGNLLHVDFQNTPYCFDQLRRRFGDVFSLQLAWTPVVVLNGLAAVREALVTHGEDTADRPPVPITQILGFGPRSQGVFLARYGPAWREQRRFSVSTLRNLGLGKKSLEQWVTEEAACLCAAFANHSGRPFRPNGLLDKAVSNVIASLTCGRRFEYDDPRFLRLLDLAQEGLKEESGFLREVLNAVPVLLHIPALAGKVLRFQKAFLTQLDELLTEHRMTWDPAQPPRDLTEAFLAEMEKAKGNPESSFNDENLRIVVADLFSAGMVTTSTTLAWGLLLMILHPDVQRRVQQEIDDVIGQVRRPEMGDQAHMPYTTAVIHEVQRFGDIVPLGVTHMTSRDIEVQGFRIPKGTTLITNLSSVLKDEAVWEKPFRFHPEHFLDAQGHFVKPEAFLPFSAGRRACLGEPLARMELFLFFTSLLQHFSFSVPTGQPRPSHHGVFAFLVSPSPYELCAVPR
Molecule,Ki (CYP2D6 [1]; [3]),Ki (CYP2D6 [1]; [4]),Ki (CYP2D6 [2])
"CNC(C)Cc1ccc(O)cc1 (stereo not drawn) [(d,l)-4-hydroxymethamphetamine]",60 µM,–,–
"CC(N)Cc1ccc2c(c1)OCO2 (stereo not drawn) [(d,l)-3,4-methylenedioxyamphetamine]",1.8 µM,–,–
"COc1cccc(CC(C)N)c1 (stereo not drawn) [(d,l)-3-methoxyamphetamine]",17.5 µM,–,–
"C[C@H](N)C(=O)c1ccccc1 [(d,l)-cathinone]",340 µM,–,–
CN(C)CCCC1(c2ccc(F)cc2)OCc2cc(C#N)ccc21 (stereo not drawn) [Citalopram],–,5.1 µM and 19 µM and 7 µM,10.4 µM
"CC(N)Cc1ccc(O)cc1 (single isomer, unassigned; (+)) [(+)-4-hydroxyamphetamine]",195 µM,–,–
CN[C@H]1CC[C@@H](c2ccc(Cl)c(Cl)c2)c2ccccc21 [Sertraline],–,–,6.52 µM
"COc1cc2c(cc1CC(C)N)OCO2 (stereo not drawn) [(d,l)-2-methoxy-4,5-methylenedioxyamphetamine]",0.17 µM,–,–
"CC(N)Cc1ccccc1 (single isomer, unassigned; (+)) [(+)-amphetamine]",26.5 µM,–,–
(+)-methamphetamine,25 µM,–,–
"COc1cc(CC(C)N)cc2c1OCO2 (stereo not drawn) [(d,l)-3-methoxy-4,5-methylenedioxyamphetamine]",2.2 µM,–,–
"COc1ccccc1CC(C)N (stereo not drawn) [(d,l)-2-methoxyamphetamine]",11.5 µM,–,–
"CNC(C)Cc1ccc2c(c1)OCO2 (stereo not drawn) [(d,l)-3,4-methylenedioxymethamphetamine]",0.6 µM,–,–
N[C@H]1CC[C@@H](c2ccc(Cl)c(Cl)c2)c2ccccc21 [Desmethylsertraline],–,16 µM,–
NCCC(Oc1ccc(C(F)(F)F)cc1)c1ccccc1 (stereo not drawn) [Norfluoxetine],–,–,1.07 µM
"COc1cc(CC(C)N)cc(OC)c1OC (stereo not drawn) [(d,l)-3,4,5-trimethoxyamphetamine]",128 µM,–,–
"COc1ccc(CC(C)N)cc1 (stereo not drawn) [(d,l)-4-methoxyamphetamine]",24 µM,–,–
"COc1cc(OC)c(CC(C)N)c(OC)c1 (stereo not drawn) [(d,l)-2,4,6-trimethoxyamphetamine]",33 µM,–,–
CNCCCC1(c2ccc(F)cc2)OCc2cc(C#N)ccc21 (stereo not drawn) [Desmethylcitalopram],–,1.3 µM and 6 µM,3.65 µM
